Data: ChEMBL document CHEMBL3885881, “DrugMatrix”

Species on record: Rattus norvegicus
Assay: DrugMatrix - Regimen: Daily Repeat
Format: toxicity, organism-based, Sprague-Dawley
Set-up: regimen Daily Repeat, gender Male, age 6-8 weeks
Details: in vivo, po, route oral GAVAGE, […]; for ABSOLUTE BASOPHIL / ABSOLUTE EOSINOPHIL / ABSOLUTE LYMPHOCYTE / ABSOLUTE MONOCYTE / ABSOLUTE SEGMENTED NEUTROPHIL / BASOPHIL / EOSINOPHIL / ERYTHROCYTE COUNT / HEMATOCRIT / HEMOGLOBIN / LEUKOCYTE COUNT / LYMPHOCYTE / MEAN CORPUSCULAR HEMOGLOBIN / MEAN CORPUSCULAR HEMOGLOBIN CONCENTRATION / MEAN CORPUSCULAR VOLUME / MONOCYTE / NEUTROPHIL / NUCLEATED RED BLOOD CELLS / PLATELET COUNT: tissue Blood; for ALANINE AMINOTRANSFERASE / ALKALINE PHOSPHATASE / ASPARTATE AMINOTRANSFERASE / BLOOD UREA NITROGEN / CARBON DIOXIDE / CHLORIDE / CHOLESTEROL / CREATINE PHOSPHOKINASE / CREATININE / GLUCOSE / LACTATE DEHYDROGENASE / LIPASE / PHOSPHORUS / POTASSIUM / SODIUM / TOTAL BILIRUBIN / TOTAL PROTEIN / URIC ACID: tissue Plasma
[1] = 0 mg/kg, 72 h, dose level Control, time 3 day
[2] = 0 mg/kg, 120 h, dose level Control, time 5 day
[3] = 22 mg/kg, 72 h, dose level High, time 3 day

For `OCCN1CCN(CCCN2c3ccccc3Sc3ccc(C(F)(F)F)cc32)CC1` [FLUPHENAZINE], the “ABSOLUTE BASOPHIL” value [1] was 0 CELLS/uL, the “ABSOLUTE EOSINOPHIL” value [1] was 0 CELLS/uL and the “ABSOLUTE LYMPHOCYTE” value [1] was 6275.67 CELLS/uL. For the same molecule, the “ABSOLUTE MONOCYTE” value [1] was 40.67 CELLS/uL, the “ABSOLUTE SEGMENTED NEUTROPHIL” value [1] was 633.67 CELLS/uL and the BASOPHIL [1] was 0%. For the same molecule, the EOSINOPHIL [1] was 0%, the “ERYTHROCYTE COUNT” value [1] was 5.2 x10E6/uL and the HEMATOCRIT [1] was 32.78%. The HEMOGLOBIN [1] was 12.98 G/DL, the “LEUKOCYTE COUNT” value [1] was 6.95 x10E3/uL and the LYMPHOCYTE [1] was 90.17%. For the same molecule, the “MEAN CORPUSCULAR HEMOGLOBIN” value [1] was 24.97 pg, the “MEAN CORPUSCULAR HEMOGLOBIN CONCENTRATION” value [1] was 39.62 G/DL and the “MEAN CORPUSCULAR VOLUME” value [1] was 63.03 fL. The MONOCYTE [1] was 0.67%, the NEUTROPHIL [1] was 9.17% and the “NUCLEATED RED BLOOD CELLS” value [1] was 0 /100WBC. For the same molecule, the “PLATELET COUNT” value [1] was 1082.83 x10E3/uL, the “ALANINE AMINOTRANSFERASE” value [1] was 69.67 u/L and the “ALKALINE PHOSPHATASE” value [1] was 430.5 u/L. The “ASPARTATE AMINOTRANSFERASE” value [1] was 90.83 u/L, the “BLOOD UREA NITROGEN” value [1] was 13 mg/dL and the “CARBON DIOXIDE” value [1] was 33 mmol/L. The CHLORIDE [1] was 99.17 MEQ/L, the CHOLESTEROL [1] was 70.5 mg/dL and the “CREATINE PHOSPHOKINASE” value [1] was 253.33 u/L. For the same molecule, the CREATININE [1] was 0.13 mg/dL, the GLUCOSE [1] was 157.17 mg/dL and the “LACTATE DEHYDROGENASE” value [1] was 85 u/L. For the same molecule, the LIPASE [1] was 10 u/L, the PHOSPHORUS [1] was 10.2 mg/dL and the POTASSIUM [1] was 5.78 MEQ/L. For the same molecule, the SODIUM [1] was 144.12 MEQ/L, the “TOTAL BILIRUBIN” value [1] was 0.2 mg/dL and the “TOTAL PROTEIN” value [1] was 5.8 G/DL. For the same molecule, the “URIC ACID” value [1] was 0.8 mg/dL, the “ABSOLUTE BASOPHIL” value [2] was 0 CELLS/uL and the “ABSOLUTE EOSINOPHIL” value [2] was 0 CELLS/uL. For the same molecule, the “ABSOLUTE LYMPHOCYTE” value [2] was 10431 CELLS/uL, the “ABSOLUTE MONOCYTE” value [2] was 90.5 CELLS/uL and the “ABSOLUTE SEGMENTED NEUTROPHIL” value [2] was 1111.83 CELLS/uL. For the same molecule, the BASOPHIL [2] was 0%, the EOSINOPHIL [2] was 0% and the “ERYTHROCYTE COUNT” value [2] was 5.51 x10E6/uL. For the same molecule, the HEMATOCRIT [2] was 34.67%, the HEMOGLOBIN [2] was 13.5 G/DL and the “LEUKOCYTE COUNT” value [2] was 11.63 x10E3/uL. For the same molecule, the LYMPHOCYTE [2] was 89.67%, the “MEAN CORPUSCULAR HEMOGLOBIN” value [2] was 24.5 pg and the “MEAN CORPUSCULAR HEMOGLOBIN CONCENTRATION” value [2] was 38.95 G/DL. The “MEAN CORPUSCULAR VOLUME” value [2] was 62.87 fL, the MONOCYTE [2] was 0.67% and the NEUTROPHIL [2] was 9.67%. For the same molecule, the “NUCLEATED RED BLOOD CELLS” value [2] was 0 /100WBC, the “PLATELET COUNT” value [2] was 1052.67 x10E3/uL and the “ALANINE AMINOTRANSFERASE” value [2] was 54.67 u/L. For the same molecule, the “ALKALINE PHOSPHATASE” value [2] was 359.83 u/L, the “ASPARTATE AMINOTRANSFERASE” value [2] was 83 u/L and the “BLOOD UREA NITROGEN” value [2] was 13.5 mg/dL. For the same molecule, the “CARBON DIOXIDE” value [2] was 27.17 mmol/L, the CHLORIDE [2] was 98.5 MEQ/L and the CHOLESTEROL [2] was 66.83 mg/dL. For the same molecule, the “CREATINE PHOSPHOKINASE” value [2] was 256.17 u/L, the CREATININE [2] was 0.19 mg/dL and the GLUCOSE [2] was 171.33 mg/dL. For the same molecule, the “LACTATE DEHYDROGENASE” value [2] was 91.5 u/L, the LIPASE [2] was 10.5 u/L and the PHOSPHORUS [2] was 8.72 mg/dL. For the same molecule, the POTASSIUM [2] was 5.34 MEQ/L, the SODIUM [2] was 142.53 MEQ/L and the “TOTAL BILIRUBIN” value [2] was 0.2 mg/dL. For the same molecule, the “TOTAL PROTEIN” value [2] was 6.05 G/DL, the “URIC ACID” value [2] was 0.6 mg/dL and the “ABSOLUTE BASOPHIL” value [3] was 0 CELLS/uL. For the same molecule, the “ABSOLUTE EOSINOPHIL” value [3] was 0 CELLS/uL, the “ABSOLUTE LYMPHOCYTE” value [3] was 7819 CELLS/uL and the “ABSOLUTE MONOCYTE” value [3] was 96.67 CELLS/uL. The “ABSOLUTE SEGMENTED NEUTROPHIL” value [3] was 384.33 CELLS/uL, the BASOPHIL [3] was 0% and the EOSINOPHIL [3] was 0%. For the same molecule, the “ERYTHROCYTE COUNT” value [3] was 6.13 x10E6/uL, the HEMATOCRIT [3] was 39.3% and the HEMOGLOBIN [3] was 15.37 G/DL. The “LEUKOCYTE COUNT” value [3] was 8.3 x10E3/uL, the LYMPHOCYTE [3] was 94.67% and the “MEAN CORPUSCULAR HEMOGLOBIN” value [3] was 25.03 pg. The “MEAN CORPUSCULAR HEMOGLOBIN CONCENTRATION” value [3] was 39.07 G/DL, the “MEAN CORPUSCULAR VOLUME” value [3] was 64.13 fL and the MONOCYTE [3] was 1%. The NEUTROPHIL [3] was 4.33%, the “NUCLEATED RED BLOOD CELLS” value [3] was 0 /100WBC and the “PLATELET COUNT” value [3] was 1324.33 x10E3/uL. For the same molecule, the “ALANINE AMINOTRANSFERASE” value [3] was 35.33 u/L, the “ALKALINE PHOSPHATASE” value [3] was 274 u/L and the “ASPARTATE AMINOTRANSFERASE” value [3] was 77 u/L. The “BLOOD UREA NITROGEN” value [3] was 16.33 mg/dL, the “CARBON DIOXIDE” value [3] was 34 mmol/L and the CHLORIDE [3] was 108.33 MEQ/L. The CHOLESTEROL [3] was 92.67 mg/dL, the “CREATINE PHOSPHOKINASE” value [3] was 280 u/L and the CREATININE [3] was 0.13 mg/dL. The GLUCOSE [3] was 154 mg/dL, the “LACTATE DEHYDROGENASE” value [3] was 79.33 u/L and the LIPASE [3] was 9.67 u/L. For the same molecule, the PHOSPHORUS [3] was 9.4 mg/dL, the POTASSIUM [3] was 5.57 MEQ/L and the SODIUM [3] was 156.07 MEQ/L. For the same molecule, the “TOTAL BILIRUBIN” value [3] was 0.17 mg/dL, the “TOTAL PROTEIN” value [3] was 6.13 G/DL and the “URIC ACID” value [3] was 0.53 mg/dL.
